Laboratory results reported in publication PMC6934184, “Selective DNA-PKcs inhibition extends the therapeutic index of localized radiotherapy and chemotherapy” (The Journal of Clinical Investigation, 2019).

Target: T1, LRRK2 G2019S (Homo sapiens, UniProt Q5S007, G2019S)
T1 construct: purchased Thermo Fisher Scientific (Life Technologies) SelectScreen
Assay: SelectScreen Adapta
Format: biochemical
Experimental: The in vitro kinase selectivity of NU5455 was determined using the SelectScreen Broad Assay Panel (Thermo Fisher Scientific) involving activity and binding assays (Supplemental Table 1). […] Class IA PI3Ks were measured using the p85α subunit.
Kinase [ATP] % Assay Kinase [ATP] % Assay Kinase [ATP] % Assay Kinase [ATP] % Assay […]
SGK (SGK1) Km app 8.5 Z MAP4K2 (GCK) Km app 2.7 Z TLK2 n/a -0.3 L STK38 (NDR) n/a -5.9 L
MERTK (cMER) Km app 8.3 Z CDK2/cyclin A Km app 2.7 Z TGFBR1 (ALK5) n/a -0.4 L MATK (HYL) Km app -6.3 Z
FYN Km app 8.3 Z EPHA1 Km app 2.7 Z CLK3 Km app -0.5 Z ABL1 E255K Km app -6.6 Z
TEC n/a 8.1 L CDK2/cyclin E1 n/a 2.7 L MAP3K14 (NIK) n/a -0.5 L STK17A (DRAK1) n/a -6.6 L
KIT V654A n/a 8.1 L TESK2 n/a 2.7 L AKT3 (PKB gamma) Km app -0.5 Z JAK2 JH1 JH2 Km app -6.7 Z
ROS1 Km app 8.0 Z SPHK1 Km app 2.7 A MAP3K9 (MLK1) Km app -0.5 Z PRKACB (PRKAC beta) n/a -6.8 L
FGFR3 K650E Km app 7.9 Z AMPK A2/B1/G1 Km app 2.6 Z IKBKB (IKK beta) Km app -0.6 Z PDGFRA (PDGFR alpha) Km app -6.8 Z
RAF1 (cRAF) Y340D Y341D 100 7.9 Z DYRK3 Km app 2.6 Z CAMK2A (CaMKII alpha) Km app -0.6 Z NEK9 Km app -7.2 Z
PI4KA (PI4K alpha) 10 7.8 A CSNK1D (CK1 delta) Km app 2.6 Z PRKCB1 (PKC beta I) Km app -0.7 Z PDK1 Km app -7.3 Z
HIPK2 Km app 7.8 Z ACVR2A n/a 2.5 L TTK n/a -0.7 L RPS6KB1 (p70S6K) Km app -7.8 Z
CSK Km app 7.6 Z DDR2 T654M n/a 2.5 L ZAK n/a -0.7 L STK38L (NDR2) n/a -8.4 L
PRKCG (PKC gamma) Km app 7.6 Z JAK2 Km app 2.5 Z IKBKE (IKK epsilon) Km app -0.7 Z ABL1 G250E Km app -8.5 Z
SRMS (Srm) Km app 7.5 Z HIPK3 (YAK1) Km app 2.5 Z CAMK2G (CaMKII gamma) n/a -0.8 L PRKD1 (PKC mu) Km app -8.5 Z
YES1 Km app 7.4 Z AMPK (A1/B1/G2) n/a 2.4 L TLK1 n/a -0.8 L CDK5/p35 Km app -8.6 Z
RPS6KA5 (MSK1) Km app 7.4 Z MYO3B (MYO3 beta) n/a 2.3 L MAPK12 (p38 gamma) Km app -0.8 Z PDGFRA T674I Km app -8.9 Z
TNIK n/a 7.3 L PASK Km app 2.3 Z PRKCI (PKC iota) Km app -0.8 Z BLK Km app -8.9 Z
FER Km app 7.1 Z ACVRL1 (ALK1) n/a 2.3 L PKN2 (PRK2) n/a -1.0 L PRKD2 (PKD2) Km app -9.1 Z
CDK16 (PCTK1)/cyclin Y n/a 7.0 L EGFR (ErbB1) L861Q Km app 2.2 Z PIM1 Km app -1.0 Z CSNK1G2 (CK1 gamma 2) Km app -9.3 Z
MST4 Km app 6.9 Z RPS6KA3 (RSK2) Km app 2.1 Z CDK5/p25 Km app -1.1 Z ROCK1 Km app -9.5 Z
FLT1 (VEGFR1) Km app 6.5 Z STK23 (MSSK1) Km app 2.0 Z SRPK1 Km app -1.1 Z PRKCB2 (PKC beta II) Km app -9.6 Z
DYRK1A Km app 6.4 Z ALK R1275Q n/a 2.0 L BRSK1 (SAD1) Km app -1.1 Z CSNK1G1 (CK1 gamma 1) Km app -9.9 Z
PRKCD (PKC delta) Km app 6.2 Z TBK1 Km app 2.0 Z MAP3K3 (MEKK3) n/a -1.1 L ABL2 (Arg) Km app -10.3 Z
EGFR (ErbB1) Km app 6.0 Z ACVR1B (ALK4) Km app 2.0 Z AMPK A1/B1/G1 Km app -1.2 Z STK3 (MST2) Km app -10.3 Z
CDC7/DBF4 n/a 6.0 L CDK3/cyclin E1 n/a 1.9 L WNK3 n/a -1.2 L CAMK4 (CaMKIV) Km app -10.4 Z
JAK3 Km app 6.0 Z KDR (VEGFR2) Km app 1.8 Z LATS1 n/a -1.3 L MKNK1 (MNK1) Km app -10.7 Z
MAPK13 (p38 delta) Km app 5.8 Z ULK1 n/a 1.8 L DMPK n/a -1.5 L FLT3 ITD n/a -11.6 L
FRAP1 (mTOR) Km app 5.7 Z AURKB (Aurora B) Km app 1.7 Z CDK2/cyclin A1 n/a -1.6 L CHEK2 (CHK2) Km app -11.7 Z
KIT Y823D n/a 5.6 L LRRK2 Km app 1.7 A LIMK1 n/a -1.7 L LTK (TYK1) Km app -13.1 Z
ITK Km app 5.5 Z MAP2K3 (MEK3) n/a 1.6 L DYRK1B Km app -1.8 Z JAK2 JH1 JH2 V617F Km app -13.8 Z
KIT Km app 5.3 Z DAPK1 Km app 1.6 A DDR1 n/a -1.8 L EPHA8 Km app -13.8 Z
CDK7/cyclin H/MNAT1 Km app 5.3 A EPHA6 n/a 1.6 L BTK Km app -2.0 Z EGFR (ErbB1) T790M L858R Km app -14.1 Z
RET Km app 5.2 Z MAP4K1 (HPK1) n/a 1.6 L ADRBK1 (GRK2) Km app -2.0 Z MET M1250T Km app -14.5 Z […]

T1 sequence (Q5S007 whole entry G2019S): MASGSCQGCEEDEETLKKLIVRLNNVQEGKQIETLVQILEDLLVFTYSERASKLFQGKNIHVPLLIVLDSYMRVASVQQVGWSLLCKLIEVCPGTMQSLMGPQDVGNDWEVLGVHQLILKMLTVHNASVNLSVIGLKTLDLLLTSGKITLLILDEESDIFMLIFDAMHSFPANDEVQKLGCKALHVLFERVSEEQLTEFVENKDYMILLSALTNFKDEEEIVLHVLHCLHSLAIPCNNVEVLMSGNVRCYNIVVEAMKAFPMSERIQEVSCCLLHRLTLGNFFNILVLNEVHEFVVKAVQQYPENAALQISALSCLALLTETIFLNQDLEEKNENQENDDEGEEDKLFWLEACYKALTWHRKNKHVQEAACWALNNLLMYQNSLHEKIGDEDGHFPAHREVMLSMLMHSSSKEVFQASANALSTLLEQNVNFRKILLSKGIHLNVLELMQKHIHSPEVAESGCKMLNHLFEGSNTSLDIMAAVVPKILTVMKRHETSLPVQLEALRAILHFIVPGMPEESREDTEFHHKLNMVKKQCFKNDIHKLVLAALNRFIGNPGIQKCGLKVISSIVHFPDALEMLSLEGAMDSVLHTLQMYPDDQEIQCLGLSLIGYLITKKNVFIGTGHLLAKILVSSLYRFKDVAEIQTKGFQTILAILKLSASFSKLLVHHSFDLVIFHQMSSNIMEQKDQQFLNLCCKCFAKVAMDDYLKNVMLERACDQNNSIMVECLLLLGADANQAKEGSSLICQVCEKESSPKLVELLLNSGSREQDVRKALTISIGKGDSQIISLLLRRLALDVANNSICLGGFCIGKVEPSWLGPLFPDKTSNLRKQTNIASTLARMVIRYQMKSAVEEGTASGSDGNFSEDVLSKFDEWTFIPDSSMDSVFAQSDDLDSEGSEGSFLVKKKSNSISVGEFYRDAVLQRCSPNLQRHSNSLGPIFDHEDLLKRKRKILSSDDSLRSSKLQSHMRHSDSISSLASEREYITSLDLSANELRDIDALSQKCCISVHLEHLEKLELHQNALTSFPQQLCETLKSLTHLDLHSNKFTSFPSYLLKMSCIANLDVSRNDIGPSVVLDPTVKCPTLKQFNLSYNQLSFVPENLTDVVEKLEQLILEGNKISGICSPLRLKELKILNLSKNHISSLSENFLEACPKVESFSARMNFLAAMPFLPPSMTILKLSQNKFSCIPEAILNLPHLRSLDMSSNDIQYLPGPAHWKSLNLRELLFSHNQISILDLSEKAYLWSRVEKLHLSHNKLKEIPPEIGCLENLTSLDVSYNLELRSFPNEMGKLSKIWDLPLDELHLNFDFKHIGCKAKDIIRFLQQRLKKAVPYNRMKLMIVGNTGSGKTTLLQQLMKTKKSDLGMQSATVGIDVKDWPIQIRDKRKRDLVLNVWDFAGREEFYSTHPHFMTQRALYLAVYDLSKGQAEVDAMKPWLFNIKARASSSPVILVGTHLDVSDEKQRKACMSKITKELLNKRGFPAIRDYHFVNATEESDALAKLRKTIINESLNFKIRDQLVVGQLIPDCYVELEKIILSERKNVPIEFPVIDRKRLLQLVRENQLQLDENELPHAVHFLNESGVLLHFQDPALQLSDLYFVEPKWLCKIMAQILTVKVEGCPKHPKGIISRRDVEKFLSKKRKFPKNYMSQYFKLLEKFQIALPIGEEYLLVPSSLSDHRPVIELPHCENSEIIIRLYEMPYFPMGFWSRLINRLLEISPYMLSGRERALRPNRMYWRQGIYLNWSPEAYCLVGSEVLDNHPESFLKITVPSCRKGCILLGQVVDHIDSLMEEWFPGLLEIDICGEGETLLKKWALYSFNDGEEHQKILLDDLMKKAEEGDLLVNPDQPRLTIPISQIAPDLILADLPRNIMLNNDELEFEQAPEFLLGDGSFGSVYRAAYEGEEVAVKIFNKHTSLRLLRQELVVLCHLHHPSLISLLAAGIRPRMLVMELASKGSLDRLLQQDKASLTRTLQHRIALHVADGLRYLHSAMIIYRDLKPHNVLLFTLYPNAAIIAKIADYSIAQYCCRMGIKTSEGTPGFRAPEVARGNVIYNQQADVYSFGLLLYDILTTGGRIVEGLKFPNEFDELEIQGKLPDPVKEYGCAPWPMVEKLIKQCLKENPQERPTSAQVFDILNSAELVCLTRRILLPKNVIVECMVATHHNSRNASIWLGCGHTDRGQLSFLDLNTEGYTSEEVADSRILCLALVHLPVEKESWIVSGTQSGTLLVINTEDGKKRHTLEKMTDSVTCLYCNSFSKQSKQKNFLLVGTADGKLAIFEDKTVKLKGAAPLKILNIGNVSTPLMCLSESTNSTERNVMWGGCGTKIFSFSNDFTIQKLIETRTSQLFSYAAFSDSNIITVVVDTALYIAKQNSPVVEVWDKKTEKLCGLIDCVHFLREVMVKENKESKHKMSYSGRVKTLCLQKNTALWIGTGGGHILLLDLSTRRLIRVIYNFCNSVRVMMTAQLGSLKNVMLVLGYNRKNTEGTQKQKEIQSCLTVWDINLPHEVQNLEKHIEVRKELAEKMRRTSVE

Question: CN(C(=O)CN1CCOCC1)c1ccc2sc3c(-c4cccc5c(=O)cc(N6CC7CCC(C6)O7)oc45)cccc3c2c1 [NU5455] was tested. Which inhibition at 1 µM did it give?
Answer: 3%
